These are literature values, as cited in patent US20110021553A1, “IMMUNOSUPPRESSIVE MACROLIDE POWDER FOR ORAL SUSPENSION” (priority 2008, published 2011).

The subject of data set [1] is skin mast cells, basophils and eosinophils. Conditions: in vitro.
Experiment in data set [2]: not given
This is another data set of the same source.

In data set [3] the test system is albumin and α1-glicoprotein. Conditions: mainly albumin and α1-glicoprotein.
The conditions of data set [4]: main metabolites via CYP3A4.

Each structure is given as a SMILES string.

Consider `C=CC[C@@H]1/C=C(\C)C[C@H](C)C[C@H](OC)[C@H]2O[C@@](O)(C(=O)C(=O)N3CCCC[C@H]3C(=O)O[C@H](/C(C)=C/[C@@H]3CC[C@@H](O)[C@H](OC)C3)[C@H](C)[C@@H](O)CC1=O)[C@H](C)C[C@@H]2OC` (relative stereo) [Tacrolimus, [3S-[3R*[E(1S*,3S*,4S*)], 4S*,5R*,8S*,9E,12R*,14R*,15S*,16R*,18S*,19S*,26aR*]]-5,6,8,11,12,13,14,15,16,17,18,19,24,25,26,26a-hexadecahydro-5,19-dihydroxy-3-[2-(4-hidroxy-3-metoxy-cyclohexyl)-1-metyletenyl]-14,16-dimethoxy-4,10,12,18-tetramethyl-8-(2-propenyl)-15,19-epoxy-3H-pyrido [2,1-c] [1,4] oxazacyclotricosine-1,7,20,21 (4H, 23H)-tetraone, monohydrate], for which, for the setting “human, in vivo”, the “excreted in unaltered state through urine” value is reported as “less than 1%”. Besides, under “main channel of elimination”, the elimination through bile result is on record as “more than 90%”. Moreover, the Bioavailability (oral, reduced with the presence of food) is listed as 4-89%. In addition, where the note is “orally 0.3 mg/Kg/day, liver transplant patients, majority of the cases”, the “time to concentration in steady state” value is listed as 3 days. Moreover, the release of mediators result in data set [1] is reported as “decreases the release of the mediators”. In addition, the “solubility in organic solvents” value in data set [2] (methanol, ethanol, acetone, ethyl acetate, chloroform and diethyl ether) is on record as “soluble”. The solubility in water result in data set [2] (water) is “insoluble”. Further, the combination to proteins in data set [3] is given as 99%.

For `C=CCC1C=C(C)CC(C)CC(OC)C2OC(O)(C(=O)C(=O)N3CCCCC3C(=O)OC(C(C)=CC3CCC(O)C(OC)C3)C(C)C(O)CC1=O)C(C)CC2O` (stereo not shown) [13-O-desmethyl tacrolimus], the immunosuppressive effect entry in data set [4] is listed as “neither of which have a measurable immunosuppresive effect”.

Consider `C=CCC1C=C(C)CC(C)CC(O)C2OC(O)(C(=O)C(=O)N3CCCCC3C(=O)OC(C(C)=CC3CCC(O)C(OC)C3)C(C)C(O)CC1=O)C(C)CC2OC` (stereo not shown) [15-O-desmethyl tacrolimus], for which, in data set [4], the immunosuppressive effect result is on record as “neither of which have a measurable immunosuppresive effect”.
